Measurements reported in patent publication US6939855B2, “Anti-inflammatory compositions and method” (Elan Pharmaceuticals, Inc., priority 1997, dated 2005).

Test system: human neutrophils
Assay: Expression of alpha-9 integrin on human neutrophils following activation
Format: cell-based
Details: compared to isotype control marker (FIG. 2)
Experimental: In this experiment, alpha-9 subunit, alpha-4 subunit and beta-1 subunit were measured after reacting human neutrophils with fluorescently labeled antibodies specifically reactive with each of the foregoing subunits.
Formyl-Met-Leu-Phe (fMLP) is an activation factor that is involved in inflammation. […] This increased expression is consistent with alpha-9 involvement in activation of neutrophils during inflammation.

## Formyl-Met-Leu-Phe [fMLP]
  alpha-9 integrin expression following activation: significantly and selectively increased
